Data taken from PubChem BioAssay (NCI).
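In this assay, cells in 96-well plates receive the compound at five concentrations for 48 hours. Endpoints are linearly interpolated between the surrounding concentrations. GI50: concentration for 50% inhibition of growth. TGI: concentration producing complete growth inhibition.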

What was measured:
Experiment in all cases: NCI tumour cell line growth inhibition, 48 h
OVCAR-4 ovarian = tested on: OVCAR-4 ovarian
HS 578T breast = tested on: HS 578T breast
KM12 colon = tested on: KM12 colon
OVCAR-8 ovarian = tested on: OVCAR-8 ovarian
HOP-62 NSCLC = tested on: HOP-62 NSCLC
CCRF-CEM leukemia = tested on: CCRF-CEM leukemia
CAKI-1 renal = tested on: CAKI-1 renal
XF 498 CNS = tested on: XF 498 CNS
DMS 273 small cell lung = tested on: DMS 273 small cell lung
SNB-78 CNS = tested on: SNB-78 CNS

SMILES	GI50 (OVCAR-4 ovarian) [µM]	TGI (OVCAR-4 ovarian) [µM]	GI50 (HS 578T breast) [µM]	TGI (HS 578T breast) [µM]	GI50 (KM12 colon) [µM]	TGI (KM12 colon) [µM]	GI50 (OVCAR-8 ovarian) [µM]	TGI (OVCAR-8 ovarian) [µM]	GI50 (HOP-62 NSCLC) [µM]	TGI (HOP-62 NSCLC) [µM]	GI50 (CCRF-CEM leukemia) [µM]	TGI (CCRF-CEM leukemia) [µM]	GI50 (CAKI-1 renal) [µM]	TGI (CAKI-1 renal) [µM]	TGI (XF 498 CNS) [µM]	TGI (DMS 273 small cell lung) [µM]	TGI (SNB-78 CNS) [µM]
O=C(Cc1ccc(/C=C/C(=O)c2ncc[nH]2)cc1)Nc1ccc(C(F)(F)F)cc1	5.12	22.1	5.88	> 33.3	1.11	4.27	7.99	> 33.3	4.8	12	1.55	> 33.3	4.43	9.47	–	–	–
O=C(O)Cn1ccnc1[N+](=O)[O-]	–	> 100	–	> 100	–	> 100	–	> 100	–	> 100	–	> 100	–	> 100	–	–	–
COc1ccc(C2NCCc3c2[nH]c2ccccc32)cc1 (stereo not given)	–	–	–	–	–	> 100	–	> 100	–	> 100	–	> 100	–	–	> 100	–	–
COc1ccc2[nH]c(-c3ccccc3)cc2c1	92.3	> 100	> 100	> 100	73.8	> 100	> 100	> 100	> 100	> 100	68.5	> 100	> 100	> 100	–	–	–
CCCCCCCCCCCCCCCCS(=O)(=O)c1ccc(NN)cc1	–	> 10	–	> 10	–	> 10	–	> 10	–	> 10	–	4.34	–	> 10	–	–	–
C=CC(=O)Nc1cccc(Nc2nc(Nc3ccc(OCCOC(F)F)cc3)ncc2F)c1	2.66	> 100	2.13	8.77	3.57	17.2	3.33	19.4	2.38	17.2	5.17	94	1.28	10.1	–	–	–
COc1cc2cc(Oc3ccc(NC(=O)c4cccc5c4OCCO5)cc3)c(C)nc2cc1OC	3.32	35	5.64	> 100	4.39	> 100	3.68	29.8	9.13	94.6	4.18	> 100	14.2	> 100	–	–	–
COc1ccc2[nH]c3c(=O)[nH]ncc3c2c1	–	> 100	–	–	–	> 100	–	> 100	–	> 100	–	> 100	–	–	–	> 100	> 100
COc1nc2c(c(O)c(C)c(=O)n2OC2OC(COC(C)=O)C(OC(C)=O)C(OC(C)=O)C2OC(C)=O)c(=O)n1C (stereo not given)	–	> 100	–	–	–	> 100	–	> 100	–	> 100	–	> 100	–	–	> 100	> 100	> 100
Fc1cc(-c2nnc3n2N=C(c2ccc(Cl)cc2Cl)CS3)c(Cl)cc1Cl	> 100	> 100	33.6	> 100	41.9	> 100	57.3	> 100	44.2	> 100	27.6	> 100	35.9	> 100	–	–	–
O=C1C(c2ccccc2)=C(c2ccccc2)[C@H](c2ccccc2)[C@]1(Cc1nnn(-c2ccc([N+](=O)[O-])cc2)c1N1CCOCC1)c1ccccc1	–	> 37.5	–	–	–	–	–	> 37.5	–	> 37.5	–	> 37.5	–	> 37.5	26.5	> 37.5	> 37.5
CC1(C)CC(=O)c2c(oc3cc(O)c(O)cc23)C1	–	43.4	–	–	–	77.4	–	55.6	–	> 100	–	92	–	76.6	–	> 100	> 100
O=C(O)[C@@H]1CCCC[C@@H]1C(=O)N(C1CCCCC1)C1CCCCC1	–	> 100	–	–	–	> 100	–	> 100	–	> 100	–	> 100	–	> 100	–	> 100	> 100
O=[N+]([O-])C1C2C=CC(C2)[C@H]1c1ccc(Cl)cc1Cl (stereo not given in full)	–	–	–	–	–	> 100	–	> 100	–	–	–	> 100	–	–	> 100	> 100	> 100
O=C(O)C1C(C(=O)O)C2(Cl)C(Cl)=C(Cl)C1(Cl)C2(Cl)Cl.[Cd] (stereo not given)	14.9	37.5	23.5	> 87	16.9	37.5	28.8	> 86.6	22.7	48.6	16.5	61.4	17.8	34.4	–	–	–
COc1cc2cccc(N=Cc3c(Br)ccc(OC)c3OC(C)C)c2cc1OC	–	> 100	–	–	–	> 100	–	> 100	–	> 100	–	90.4	–	70.2	> 100	–	> 100
C[N+](C)=c1nc(N2CCOCC2)ss1	–	–	–	–	–	> 100	–	> 100	–	> 100	–	> 100	–	> 100	> 100	> 100	> 100
CCc1cccc(CC)c1/C=C/c1cncc(C(=O)NC)c1	> 21.4	> 25	7.65	> 25	9.02	> 25	15.4	> 25	9.88	> 25	0.765	> 25	9.62	> 25	–	–	–
CCCCCCCCCC(=O)Oc1cccc2onc(C)c12	–	> 100	–	–	–	> 100	–	> 100	–	> 100	–	> 100	–	> 100	–	> 100	> 100
Nc1ncnc2c1c(-c1ccc(Oc3ccccc3)cc1)nn2C[C@@H]1SSC[C@@H]1O	1.33	14	2.02	11.6	0.18	12.1	0.36	12.2	0.202	1.24	0.061	> 59.7	1.36	5.01	–	–	–
